Assay results reported in patent publication US20140228274A1, “Liquid Detergent Composition” (priority 2011, published 2014).

Assays:
[1] = target: T1, Savinase 16L (subtilisin) (Lederbergia lenta, UniProt P29600); assay: Storage stability in liquid detergent: residual protease activity (hydrolysis of N,N-dimethylcasein at 40° C., pH 8.3); format: biochemical; details: for Residual protease activity, 4 weeks at 35° C. (% of initial activity): inhibitor dosage 'yes'
T1 construct: purchased Novozymes Savinase 16L
T1 sequence (P29600 1-269): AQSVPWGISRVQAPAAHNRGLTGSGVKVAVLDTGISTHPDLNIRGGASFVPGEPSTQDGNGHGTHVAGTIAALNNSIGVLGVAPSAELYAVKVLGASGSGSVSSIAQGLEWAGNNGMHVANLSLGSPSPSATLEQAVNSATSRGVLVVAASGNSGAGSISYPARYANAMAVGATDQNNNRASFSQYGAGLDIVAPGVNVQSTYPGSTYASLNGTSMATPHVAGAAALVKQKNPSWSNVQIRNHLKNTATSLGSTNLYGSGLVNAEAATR
Method: (§1) General experimental details: Detergents containing Savinase 16L and either X—B^1—B^0—H or X—B^1—NH—CHR—CHOH—SO3Na; or Savinase 16L; are placed in closed glasses at −18° C.; 35° C. and 40° C. Residual activities of protease and lipase are measured after different times using standard analytical methods (protease by hydrolysis of N,N-dimethylcasein at 40° C., pH 8.3 and lipase by hydrolysis of pNp-valerate at 40° C., pH 7.7). The inhibitor and protease may also be added individually to the detergent.
(§2) As an example of liquid detergents with a stabilized subtilisin formulation, the compositions described in Table 1 were made.
(§3) As another example of detergents with a stabilized subtilisin formulation, the compositions described in Table 3 were made.

Lipex 100L (lipase) = assay: Storage stability in liquid detergent: residual lipase activity (hydrolysis of pNp-valerate at 40° C., pH 7.7); format: biochemical
Method: as §1, §2, §3

[2] = Detergent B, 2% Na formate alone, no inhibitor
[3] = Detergent A, no Na formate, inhibitor 21 ppm (peptide aldehydes) or 26 ppm (hydrosulfite adduct) in detergent
[4] = Detergent B, 2% Na formate, inhibitor 21 ppm (peptide aldehydes) or 26 ppm (hydrosulfite adduct) in detergent

| Molecule | Residual protease activity, 2 weeks at 40° C. (% of initial activity) [1, 2] | Residual lipase activity, 2 weeks at 35° C. (% of initial activity) (Lipex 100L (lipase); [2]) | Residual protease activity, 2 weeks at 40° C. (% of initial activity) [1, 3] | Residual protease activity, 2 weeks at 40° C. (% of initial activity) [1, 4] | Residual protease activity, 4 weeks at 35° C. (% of initial activity) ([1]; Detergent E (12% LAS, pH 8.4), no Na formate) | Residual protease activity, 4 weeks at 35° C. (% of initial activity) ([1]; Detergent F (12% LAS, pH 8.4), 2% Na formate) | Residual lipase activity, 2 weeks at 35° C. (% of initial activity) (Lipex 100L (lipase); [3]) | Residual lipase activity, 2 weeks at 35° C. (% of initial activity) (Lipex 100L (lipase); [4]) | Residual lipase activity, 2 weeks at 35° C. (% of initial activity) (Lipex 100L (lipase); Detergent E (12% LAS, pH 8.4), no Na formate, inhibitor dosage 'yes') | Residual lipase activity, 2 weeks at 35° C. (% of initial activity) (Lipex 100L (lipase); Detergent F (12% LAS, pH 8.4), 2% Na formate, inhibitor dosage 'yes') |
| --- | --- | --- | --- | --- | --- | --- | --- | --- | --- | --- |
| O=C[O-].[Na+] [Na formate, sodium formate] | 1% | 3% | – | – | – | – | – | – | – | – |
| Cbz-GAY-H | – | – | 5% | 71% | 43% | 88% | 16% | 32% | 14% | 27% |
| Cbz-VAL-H | – | – | 2% | 49% | – | – | 13% | 30% | – | – |
